In ChEMBL document CHEMBL4229348, “Structure-activity relationship studies of ultra-short peptides with potent activities against fluconazole-resistant Candida albicans” (Eur J Med Chem, 2018):
Converted amounts (≈) assume the structure as drawn. The source made the active and inactive calls. The calls are words filed in the database; no cut-off is given here. Square brackets hold non-standard residues; d marks the D form. Peptide text beside a SMILES is read from it. Lys(Me2) = CN(C)CCCC[C@H](N)C(=O)O; Ala(cPr) = N[C@@H](CC1CC1)C(=O)O; tBuAla = CC(C)(C)C[C@H](N)C(=O)O; Dap = NC[C@H](N)C(=O)O

What was measured:
Candida albicans [1] = assay: Antifungal activity against fluconazole-resistant Candida albicans TTSH-CALB01 after overnight incubation by CLSI broth microdilution method; assay type: functional
[2] = Cytotoxicity against NHDF assessed as reduction in cell viability after 5 days by CellTiter-Glo assay; assay type: cell-based; details: human, NHDF cells
Candida albicans [3] = assay: Antifungal activity against fluconazole-resistant Candida albicans ATCC 96901 after overnight incubation by CLSI broth microdilution method; assay type: functional
Candida albicans [4] = assay: Antifungal activity against fluconazole-resistant Candida albicans ATCC 200955 after overnight incubation by CLSI broth microdilution method; assay type: functional
Candida albicans [5] = assay: Fungistatic activity against fluconazole-resistant Candida albicans ATCC 64550 at 4 times MIC incubated for overnight flowed by replating and measured after 24 hrs; assay type: functional, organism-based
Candida albicans [6] = assay: Antifungal activity against fluconazole-resistant Candida albicans TTSH-CALB02 after overnight incubation by CLSI broth microdilution method; assay type: functional
Candida albicans [7] = assay: Antifungal activity against fluconazole-resistant Candida albicans ATCC 64124 after overnight incubation by CLSI broth microdilution method; assay type: functional
Candida albicans [8] = assay: Antifungal activity against fluconazole-resistant Candida albicans ATCC MYA-573 after overnight incubation by CLSI broth microdilution method; assay type: functional
Candida albicans [9] = assay: Antifungal activity against fluconazole-resistant Candida albicans NUH-K6004 after overnight incubation by CLSI broth microdilution method; assay type: functional
Candida albicans [10] = assay: Antifungal activity against fluconazole-resistant Candida albicans ATCC 64550 after overnight incubation by CLSI broth microdilution method; assay type: functional
[11] = Cytotoxicity against human bone marrow cells assessed as inhibition of colony formation; assay type: cell-based, Bone marrow cell
[12] = Retention time of the compound at 0.4 mM by HPLC analysis; assay type: physicochemical; details: 400 µM
NHDF = assay: Cytotoxicity against NHDF assessed as reduction in cell viability up to 200 uM after 5 days by CellTiter-Glo assay; assay type: cell-based; details: human, 120 h

Compound | MIC (Candida albicans [10]) [µM] | Retention_time [12] [min] | further results
Clc1ccc(COC(Cn2ccnc2)c2ccc(Cl)cc2Cl)c(Cl)c1 (stereo unspecified) [MICONAZOLE] | 12.5 (≈ 5.2 µg/mL) | – | MIC (Candida albicans [1]): 12.5 µM (≈ 5.2 µg/mL); GI50 at 120 h [2]: 10.3 µM; MIC (Candida albicans [3]): 6.25 µM (≈ 2.6 µg/mL); MIC (Candida albicans [4]): 12.5 µM (≈ 5.2 µg/mL); Activity (Candida albicans [5]): Active; MIC (Candida albicans [6]): 12.5 µM (≈ 5.2 µg/mL); MIC (Candida albicans [7]): 12.5 µM (≈ 5.2 µg/mL); MIC (Candida albicans [8]): 6.25 µM (≈ 2.6 µg/mL); MIC (Candida albicans [9]): 12.5 µM (≈ 5.2 µg/mL); GI50 [11]: 12.8 µM
CC(C)C[C@H](NC(=O)[C@H](CCCCN)NC(=O)[C@H](CC(C)C)NC(=O)[C@H](CCCCN)NC(=O)[C@H](CC(C)C)NC(=O)[C@H](CCCCN)NC(=O)[C@@H](N)CC(C)C)C(=O)N[C@@H](CCCCN)C(N)=O | 3.13 (≈ 3.07 µg/mL) | 13.8 | –
H-IKIKIKAK-NH2 | 6.25 | 12 | –
CC(O)CO (stereo unspecified) [PROPYLENE GLYCOL] | – | – | Activity (NHDF): Non-Toxic
H-WKWKWKWK-NH2 | > 100 | 15.9 | –
CC[C@H](C)[C@H](N)C(=O)N[C@@H](CN)C(=O)N[C@H](C(=O)N[C@@H](CN)C(=O)N[C@H](C(=O)N[C@@H](CN)C(=O)N[C@H](C(=O)N[C@@H](CN)C(=O)N[C@H](C(N)=O)[C@@H](C)CC)[C@@H](C)CC)[C@@H](C)CC)[C@@H](C)CC (H-I[Dap]I[Dap]I[Dap]I[Dap]I-NH2) | 25 (≈ 23.2 µg/mL) | 13.7 | –
H-VKVKVKVK-NH2 | 6.25 | 11.1 | –
H-IEIEIEIE-NH2 | > 100 | 16.1 | –
CC[C@H](NC(=O)[C@H](CCCCN)NC(=O)[C@H](CC)NC(=O)[C@H](CCCCN)NC(=O)[C@H](CC)NC(=O)[C@H](CCCCN)NC(=O)[C@@H](N)CC)C(=O)N[C@@H](CCCCN)C(N)=O (HELM PEPTIDE1{[Abu].K.[Abu].K.[Abu].K.[Abu].K.[am]}$$$$V2.0) | > 100 | 6 | –
NCCCC[C@H](NC(=O)[C@H](CC1CCCCC1)NC(=O)[C@H](CCCCN)NC(=O)[C@H](CC1CCCCC1)NC(=O)[C@H](CCCCN)NC(=O)[C@H](CC1CCCCC1)NC(=O)[C@H](CCCCN)NC(=O)[C@@H](N)CC1CCCCC1)C(N)=O (HELM PEPTIDE1{[Cha].K.[Cha].K.[Cha].K.[Cha].K.[am]}$$$$V2.0) | > 100 | 17.9 | –
H-FKFKFKFK-NH2 | 6.25 | 15.2 | –
H-KIKIKIKI-NH2 | 3.13 | 14 | –
OC(Cn1cncn1)(Cn1cncn1)c1ccc(F)cc1F [FLUCONAZOLE] | > 100 | – | MIC (Candida albicans [1]): > 100 µM; MIC (Candida albicans [3]): > 100 µM; MIC (Candida albicans [4]): > 100 µM; MIC (Candida albicans [6]): > 100 µM; MIC (Candida albicans [7]): > 100 µM; MIC (Candida albicans [8]): > 100 µM; MIC (Candida albicans [9]): > 100 µM
CCCCCCCCCCCCCCCC(=O)N[C@H](C(=O)N[C@@H](CCCCN)C(=O)N[C@H](C(=O)N[C@@H](CCCCN)C(=O)N[C@H](C(=O)N[C@@H](CCCCN)C(=O)N[C@H](C(=O)N[C@@H](CCCCN)C(N)=O)[C@@H](C)CC)[C@@H](C)CC)[C@@H](C)CC)[C@@H](C)CC (HELM PEPTIDE1{[CCCCCCCCCCCCCCCC(=O)[*:2]].I.K.I.K.I.K.I.K.[am]}$$$$V2.0) | > 100 | 23.5 | –
H-LKLKLK-NH2 | 100 | 12.8 | –
CC(C)C[C@H](NC(=O)[C@H](CCCCN)NC(=O)[C@@H](N)CC(C)C)C(=O)N[C@@H](CCCCN)C(N)=O (H-LKLK-NH2) | > 100 | 11 | –
Ac-IKIKIKIK-NH2 | 12.5 | 14.3 | –
H-GKGKGKGK-NH2 | > 100 | 1.6 | –
NCCCC[C@H](NC(=O)[C@H](CC1CC1)NC(=O)[C@H](CCCCN)NC(=O)[C@H](CC1CC1)NC(=O)[C@H](CCCCN)NC(=O)[C@H](CC1CC1)NC(=O)[C@H](CCCCN)NC(=O)[C@@H](N)CC1CC1)C(N)=O (H-[Ala(cPr)]K[Ala(cPr)]K[Ala(cPr)]K[Ala(cPr)]K-NH2) | 6.25 (≈ 6.09 µg/mL) | 12.8 | –
H-KLKLKLKL-NH2 | 3.13 | 14.4 | –
H-ILRWPWWPWRRK-NH2 [OMIGANAN] | 50 | – | –
CCC[C@H](NC(=O)[C@H](CCCCN)NC(=O)[C@H](CCC)NC(=O)[C@H](CCCCN)NC(=O)[C@H](CCC)NC(=O)[C@H](CCCCN)NC(=O)[C@@H](N)CCC)C(=O)N[C@@H](CCCCN)C(N)=O (HELM PEPTIDE1{[Nva].K.[Nva].K.[Nva].K.[Nva].K.[am]}$$$$V2.0) | 6.25 (≈ 5.79 µg/mL) | 12 | –
H-KKIIKKII-NH2 | > 100 | 12.6 | –
H-IKIKIAIK-NH2 | 12.5 | 13.8 | –
H-KLKLKLKLK-NH2 | 3.13 | 13.6 | –
CC(C)C[C@H](NC(=O)[C@@H](N)CCCCN)C(=O)N[C@@H](CCCCN)C(N)=O (H-Lys-Leu-Lys-NH2) | > 100 | 2.4 | –
H-IKIKAKIK-NH2 | 6.25 | 11.8 | –

Compound | MIC (Candida albicans [10]) [µM] | Retention_time [12] [min] | further results
H-LKLKLKLKLK-NH2 | 3.13 | 14.5 | –
CC(C)C[C@H](NC(=O)[C@H](CCCCN)NC(=O)[C@@H](N)CC(C)C)C(N)=O (H-Leu-Lys-Leu-NH2) | > 100 | 12.1 | –
CC(C)(C)C[C@H](NC(=O)[C@H](CCCCN)NC(=O)[C@H](CC(C)(C)C)NC(=O)[C@H](CCCCN)NC(=O)[C@H](CC(C)(C)C)NC(=O)[C@H](CCCCN)NC(=O)[C@@H](N)CC(C)(C)C)C(=O)N[C@@H](CCCCN)C(N)=O (H-[tBuAla]K[tBuAla]K[tBuAla]K[tBuAla]K-NH2) | 3.13 (≈ 3.25 µg/mL) | 15.6 | –
H-IAIKIKIK-NH2 | 12.5 | 13.7 | –
CC[C@H](C)[C@H](N)C(=O)N[C@@H](CCN)C(=O)N[C@H](C(=O)N[C@@H](CCN)C(=O)N[C@H](C(=O)N[C@@H](CCN)C(=O)N[C@H](C(=O)N[C@@H](CCN)C(=O)N[C@H](C(N)=O)[C@@H](C)CC)[C@@H](C)CC)[C@@H](C)CC)[C@@H](C)CC (HELM PEPTIDE1{I.[Dab].I.[Dab].I.[Dab].I.[Dab].I.[am]}$$$$V2.0) | 6.25 (≈ 6.15 µg/mL) | 13.5 | –
H-IRIRIRIR-NH2 | 12.5 | 13.9 | –
H-AKIKIKIK-NH2 | 6.25 | 12.4 | –
H-IKIKIKIK-OH | 12.5 | 13.5 | –
H-KKKKKKKK-NH2 | > 100 | 2 | –
H-AKAKAKAK-NH2 | > 100 | 1.9 | –
H-LKLKL-NH2 | > 100 | 13.7 | –
H-KLKLKLK-NH2 | 25 | 12.7 | –
CC(C)C[C@@H](N)C(=O)N[C@H](CCCCN)C(=O)N[C@H](CC(C)C)C(=O)N[C@H](CCCCN)C(=O)N[C@H](CC(C)C)C(=O)N[C@H](CCCCN)C(=O)N[C@H](CC(C)C)C(=O)N[C@H](CCCCN)C(N)=O | 3.13 (≈ 3.07 µg/mL) | 13.8 | –
CC[C@H](C)[C@H](N)C(=O)N[C@@H](CCCCN(C)C)C(=O)N[C@H](C(=O)N[C@@H](CCCCN(C)C)C(=O)N[C@H](C(=O)N[C@@H](CCCCN(C)C)C(=O)N[C@H](C(=O)N[C@@H](CCCCN(C)C)C(N)=O)[C@@H](C)CC)[C@@H](C)CC)[C@@H](C)CC (H-I[Lys(Me2)]I[Lys(Me2)]I[Lys(Me2)]I[Lys(Me2)]-NH2) | 100 (≈ 109 µg/mL) | 14 | –
H-IKIAIKIK-NH2 | 12.5 | 13.8 | –
CC(C)C[C@H](N)C(=O)N[C@@H](CCCCN)C(N)=O (H-Leu-Lys-NH2) | > 100 | 2.1 | –
H-IKIKIKIA-NH2 | 12.5 | 13.9 | –
H-IKAKIKIK-NH2 | 6.25 | 11.8 | –
H-IIIIKKKK-NH2 | 12.5 | 12 | –
CC[C@H](C)[C@H](N)C(=O)N[C@@H](CCCN)C(=O)N[C@H](C(=O)N[C@@H](CCCN)C(=O)N[C@H](C(=O)N[C@@H](CCCN)C(=O)N[C@H](C(=O)N[C@@H](CCCN)C(=O)N[C@H](C(N)=O)[C@@H](C)CC)[C@@H](C)CC)[C@@H](C)CC)[C@@H](C)CC (HELM PEPTIDE1{I.[Orn].I.[Orn].I.[Orn].I.[Orn].I.[am]}$$$$V2.0) | 6.25 (≈ 6.5 µg/mL) | 13.2 | –
H-LKLKLKL-NH2 | 50 | 14.5 | –
H-IK(Ac)IK(Ac)IK(Ac)IK(Ac)-NH2 | > 100 | 22.9 | –
H-EKEKEKEK-NH2 | > 100 | 1.9 | –
H-LKLKLKLKL-NH2 | 3.13 | 15.1 | –
H-IIKKIIKK-NH2 | > 100 | 11.6 | –
CCCCCCCCCCCC(=O)N[C@H](C(=O)N[C@@H](CCCCN)C(=O)N[C@H](C(=O)N[C@@H](CCCCN)C(=O)N[C@H](C(=O)N[C@@H](CCCCN)C(=O)N[C@H](C(=O)N[C@@H](CCCCN)C(N)=O)[C@@H](C)CC)[C@@H](C)CC)[C@@H](C)CC)[C@@H](C)CC (HELM PEPTIDE1{[CCCCCCCCCCCC(=O)[*:2]].I.K.I.K.I.K.I.K.[am]}$$$$V2.0) | > 100 | 20.8 | –
H-KLKLK-NH2 | > 100 | 11.2 | –
